Article PMC8815882, “Screening the pandemic response box identified benzimidazole carbamates, Olorofim and ravuconazole as promising drug candidates for the treatment of eumycetoma” (PLoS Neglected Tropical Diseases, 2022)
Like-named read-outs stand apart in the source and are kept apart here.

Test system: M. mycetomatis genome strain MM55
Experiment: CLSI M38-A2 based in vitro susceptibility screening (XTT or resazurin), growth at fixed concentration
Assay type: cell-based, Madurella mycetomatis
Conditions: Madurella mycetomatis; for Percent fungal survival at 100 µM: read-out: Percentage survival at 100um, 100 uM A (second replicate column)
[1] = mean of replicates, read-out: Percentage survival at 25um, 25 uM mean
[2] = replicate A, read-out: Percentage survival at 25um, 25 um A
[3] = replicate B, read-out: Percentage survival at 25um, 25 uM B
[4] = replicate C, read-out: Percentage survival at 25um, 25 uM C
[5] = mean of replicates, read-out: Percentage survival at 100um, 100 uM mean
[6] = replicate 1, read-out: Percentage survival at 100um, 100 uM A
[7] = replicate 2, read-out: Percentage survival at 100um, 100 uM A
[8] = replicate 3, read-out: Percentage survival at 100um, 100 uM A
[9] = mean of three replicates, read-out: Percentage survival at 25um, 25 uM mean
[10] = mean of three replicates, read-out: Percentage survival at 100um, 100 uM mean
[11] = replicate 1, read-out: Percentage survival at 100um, 100 uM A (first replicate column)
[12] = replicate 3, read-out: Percentage survival at 100um, 100 uM A (third replicate column)
[13] = mean, read-out: Percentage survival at 25um, 25 uM mean
[14] = mean, read-out: Percentage survival at 100um, 100 uM mean
[15] = replicate (first column), read-out: Percentage survival at 100um, 100 uM A
[16] = replicate (second column), read-out: Percentage survival at 100um, 100 uM A
[17] = replicate (third column), read-out: Percentage survival at 100um, 100 uM A
[18] = first replicate column, read-out: Percentage survival at 100um, 100 uM A
[19] = second replicate column, read-out: Percentage survival at 100um, 100 uM A
[20] = third replicate column, read-out: Percentage survival at 100um, 100 uM A

SMILES | activity at 25 µM [1] [%] | activity at 25 µM [2] [%] | activity at 25 µM [3] [%] | activity at 25 µM [4] [%] | activity at 100 µM [5] [%] | activity at 100 µM [6] [%] | activity at 100 µM [7] [%] | activity at 100 µM [8] [%] | activity at 25 µM [9] [%] | activity at 100 µM [10] [%] | also measured
O=C(Nc1ccc(-c2ccccc2)cc1)C1=C(O)C(Cc2ccccc2)OC1=O (stereo not shown) [MMV1593531] | 72.9 | 71.9 | 72 | 74.7 | 74.5 | 74.2 | 70.8 | 78.4 |  |  | 
CCCCCc1ccc(C(=O)NCCn2cc(CCCCCc3cnc(N)[nH]3)nn2)cc1 [MMV1580847] |  | 58 | 61.7 | 70 |  |  |  |  | 63.2 | 64.8 | activity at 100 µM [11]: 67%; Percent fungal survival at 100 µM (replicate 2): 95.2%; activity at 100 µM [12]: 32.1%
CC(C)(C)c1cc(C(=O)/C(C#N)=N/Nc2cccc(Cl)c2)no1 [MMV1578571] | 61 | 95.6 | 56.3 | 31.2 | 6.1 | 4.87 | 4.92 | 8.51 |  |  | 
COc1ccc(SCC(=O)N2c3ccccc3Sc3ccccc32)cc1 [MMV1578573] | 55.5 | 59.3 | 58.5 | 48.8 | 68.5 | 43.6 | 62.3 | 99.7 |  |  | 
Clc1cccc(-c2nnc(-c3ccccc3)o2)c1 [MMV141011] | 67.1 | 78.3 | 72.5 | 50.5 | 67.1 | 58.8 | 65.1 | 77.6 |  |  | 
Nc1nc(O)ncc1F [MMV004508] |  | 87.6 | 87.9 | 76.6 |  |  |  |  |  |  | activity at 25 µM [13]: 84%; activity at 100 µM [14]: 89.4%; activity at 100 µM [15]: 93.5%; activity at 100 µM [16]: 81.4%; activity at 100 µM [17]: 93.4%
O=C(c1cc(O)nc2ccccc12)N1CCN(c2ccccc2)CC1 [MMV596723] |  | 85.3 | 92.8 | 66.3 |  |  |  |  | 81.5 | 79.5 | activity at 100 µM [18]: 83.7%; activity at 100 µM [19]: 80.5%; activity at 100 µM [20]: 74.4%
CC(Oc1ccc(Cl)cc1Cl)C(=O)NCc1ccc2c(c1)OCO2 (stereo not shown) [MMV1578925] |  | 53.9 | 36.1 | 54.9 |  |  |  |  |  |  | activity at 25 µM [13]: 48.3%; activity at 100 µM [14]: 70.2%; activity at 100 µM [15]: 65.3%; activity at 100 µM [16]: 69%; activity at 100 µM [17]: 76.3%
Cc1ccn2c(C(=O)NCc3ccccc3)c(C)nc2c1 [MMV1579847] |  | 90.2 | 66.1 | 92.5 |  |  |  |  | 82.9 | 61.9 | activity at 100 µM [11]: 72.5%; Percent fungal survival at 100 µM (replicate 2): 55.8%; activity at 100 µM [12]: 57.5%
COc1ccc2c(c1OC)C(=O)OC2C1c2c(cc3c(c2OC)OCO3)CCN1C (stereo not shown) [MMV002780] |  | 86.6 | 81.3 | 78.1 |  |  |  |  | 82 | 72.6 | activity at 100 µM [18]: 72.9%; activity at 100 µM [19]: 68.2%; activity at 100 µM [20]: 76.7%
Cc1c(N)cccc1Cn1ccc(OCCc2cccs2)cc1=O [MMV1578557] |  |  |  |  |  |  |  |  |  |  | activity at 25 µM (mean of three, M. mycetomatis MM55, read-out: Percentage survival at 25um, 25 uM mean): 79.8%; activity at 25 µM (replicate A, M. mycetomatis MM55, read-out: Percentage survival at 25um, 25 um A): 82.2%; activity at 25 µM (replicate B, M. mycetomatis MM55, read-out: Percentage survival at 25um, 25 uM B): 84.5%; activity at 25 µM (replicate C, M. mycetomatis MM55, read-out: Percentage survival at 25um, 25 uM C): 72.6%; activity at 100 µM (mean of three, M. mycetomatis MM55, read-out: Percentage survival at 100um, 100 uM mean): 78.3%; activity at 100 µM (replicate 1, M. mycetomatis MM55, read-out: Percentage survival at 100um, 100 uM A (first replicate column)): 73%; Percent fungal survival at 100 µM (replicate 2, M. mycetomatis MM55): 81.9%; activity at 100 µM (replicate 3, M. mycetomatis MM55, read-out: Percentage survival at 100um, 100 uM A (third replicate column)): 80%
